Experimental data from ChEMBL document CHEMBL1131216, “Anhydrolide macrolides. 2. Synthesis and antibacterial activity of 2,3-anhydro-6-O-methyl 11,12-carbazate erythromycin A analogues” (1998).
≈ marks a conversion by molar mass, not a printed value.

Columns and labels:
Format in all cases: functional
Haemophilus influenzae = assay: In vitro antibacterial activity of DILL strain of Gram negative bacteria Haemophilus influenzae
Streptococcus pneumoniae [1] = assay: In vitro antibacterial activity of 5649 strain of Gram positive bacteria Streptococcus pneumoniae
Streptococcus pneumoniae [2] = assay: In vitro antibacterial activity of 5979 strain of Gram positive bacteria Streptococcus pneumoniae
Streptococcus pneumoniae [3] = assay: In vitro antibacterial activity of ATCC 6303 strain of Gram positive bacteria Streptococcus pneumoniae
Staphylococcus aureus [4] = assay: In vitro antibacterial activity of A5177 strain of Gram positive bacteria Staphylococcus aureus
Streptococcus pyogenes [5] = assay: In vitro antibacterial activity of 930 strain of Gram positive bacteria Streptococcus pyogenes
Streptococcus pyogenes [6] = assay: In vitro antibacterial activity of EES61 strain of Gram positive bacteria Streptococcus pyogenes
Streptococcus pyogenes [7] = assay: In vitro antibacterial activity of PIU2584 strain of Gram positive bacteria Streptococcus pyogenes
Staphylococcus aureus [8] = assay: In vitro antibacterial activity of A-5278 strain of Gram positive bacteria Staphylococcus aureus
Staphylococcus aureus [9] = assay: In vitro antibacterial activity of 6538P strain of Gram positive bacteria Staphylococcus aureus

SMILES | MIC (Haemophilus influenzae) [µg/mL] | MIC (Streptococcus pneumoniae [1]) [µg/mL] | MIC (Streptococcus pneumoniae [2]) [µg/mL] | MIC (Streptococcus pneumoniae [3]) [µg/mL] | MIC (Staphylococcus aureus [4]) [µg/mL] | MIC (Streptococcus pyogenes [5]) [µg/mL] | MIC (Streptococcus pyogenes [6]) [µg/mL] | MIC (Streptococcus pyogenes [7]) [µg/mL] | MIC (Staphylococcus aureus [8]) [µg/mL] | MIC (Staphylococcus aureus [9]) [µg/mL]
CC[C@H]1OC(=O)/C(C)=C/[C@H](C)[C@@H](O[C@@H]2O[C@H](C)C[C@H](N(C)C)[C@H]2O)[C@@](C)(OC)C[C@@H](C)C(=O)[C@H](C)[C@H]2N(NCc3ccncc3)C(=O)O[C@]12C | 8 (≈ 11.4 µM) | 1 (≈ 1.42 µM) | > 128 | 0.03 (≈ 0.0427 µM) | 0.2 (≈ 0.285 µM) | > 128 | 0.03 (≈ 0.0427 µM) | 0.5 (≈ 0.711 µM) | > 100 | 0.39 (≈ 0.555 µM)
CC[C@H]1OC(=O)/C(C)=C/[C@H](C)[C@@H](O[C@@H]2O[C@H](C)C[C@H](N(C)C)[C@H]2O)[C@@](C)(OC)C[C@@H](C)C(=O)[C@H](C)[C@H]2N(N)C(=O)O[C@]12C | 32 (≈ 52.3 µM) | 1 (≈ 1.63 µM) | > 64 | 0.25 (≈ 0.409 µM) | 1.56 (≈ 2.55 µM) | > 64 | 0.25 (≈ 0.409 µM) | 1 (≈ 1.63 µM) | > 100 | 1.56 (≈ 2.55 µM)
CC[C@H]1OC(=O)/C(C)=C/[C@H](C)[C@@H](O[C@@H]2O[C@H](C)C[C@H](N(C)C)[C@H]2O)[C@@](C)(OC)C[C@@H](C)C(=O)[C@H](C)[C@H]2N(NCc3ccccc3CO)C(=O)O[C@]12C | 4 (≈ 5.47 µM) | 1 (≈ 1.37 µM) | > 128 | 0.03 (≈ 0.041 µM) | 0.2 (≈ 0.273 µM) | > 128 | 0.03 (≈ 0.041 µM) | 0.5 (≈ 0.683 µM) | > 100 | 0.2 (≈ 0.273 µM)
CC[C@H]1OC(=O)/C(C)=C/[C@H](C)[C@@H](O[C@@H]2O[C@H](C)C[C@H](N(C)C)[C@H]2O)[C@@](C)(OC)C[C@@H](C)[C@@H]2NN3C(=O)O[C@@]1(C)[C@H]3[C@H]2C | > 128 | > 128 | > 128 | > 128 | > 100 | > 128 | > 128 | > 128 | > 100 | > 100
CC[C@H]1OC(=O)/C(C)=C/[C@H](C)[C@@H](O[C@@H]2O[C@H](C)C[C@H](N(C)C)[C@H]2O)[C@@](C)(OC)C[C@@H](C)C(=O)[C@H](C)[C@H]2N(NCCCc3ccccc3[N+](=O)[O-])C(=O)O[C@]12C | 8 (≈ 10.3 µM) | 1 (≈ 1.29 µM) | 128 (≈ 165 µM) | 0.03 (≈ 0.0387 µM) | 0.01 (≈ 0.0129 µM) | 64 (≈ 82.6 µM) | 0.03 (≈ 0.0387 µM) | 0.5 (≈ 0.645 µM) | > 100 | 0.1 (≈ 0.129 µM)
CC[C@H]1OC(=O)/C(C)=C/[C@H](C)[C@@H](O[C@@H]2O[C@H](C)C[C@H](N(C)C)[C@H]2O)[C@@](C)(OC)C[C@@H](C)C(=O)[C@@H](C)[C@H]2N(N)C(=O)O[C@]12C | > 128 | 16 (≈ 26.2 µM) | > 128 | 8 (≈ 13.1 µM) | 50 (≈ 81.7 µM) | > 128 | 8 (≈ 13.1 µM) | 32 (≈ 52.3 µM) | > 100 | 50 (≈ 81.7 µM)
CC[C@H]1OC(=O)/C(C)=C/[C@H](C)[C@@H](O[C@@H]2O[C@H](C)C[C@H](N(C)C)[C@H]2O)[C@@](C)(OC)C[C@@H](C)[C@H]2[C@H](C)[C@H]3N(C(=O)O[C@]13C)N2CCCc1ccccc1 | > 64 | 64 (≈ 89.6 µM) | 64 (≈ 89.6 µM) | 16 (≈ 22.4 µM) | 50 (≈ 70 µM) | 64 (≈ 89.6 µM) | 16 (≈ 22.4 µM) | 64 (≈ 89.6 µM) | 100 (≈ 140 µM) | 100 (≈ 140 µM)
CC[C@H]1OC(=O)/C(C)=C/[C@H](C)[C@@H](O[C@@H]2O[C@H](C)C[C@H](N(C)C)[C@H]2O)[C@@](C)(OC)C[C@@H](C)C(=O)[C@H](C)[C@H]2N(NCc3ccc(SC)cc3)C(=O)O[C@]12C | 8 (≈ 10.7 µM) | 0.5 (≈ 0.668 µM) | 64 (≈ 85.6 µM) | 0.03 (≈ 0.0401 µM) | – | 64 (≈ 85.6 µM) | 0.03 (≈ 0.0401 µM) | 1 (≈ 1.34 µM) | > 100 | 0.39 (≈ 0.521 µM)
CC[C@H]1OC(=O)/C(C)=C/[C@H](C)[C@@H](O[C@@H]2O[C@H](C)C[C@H](N(C)C)[C@H]2O)[C@@](C)(OC)C[C@@H](C)C(=O)[C@H](C)[C@H]2N(NCc3c(O)ccc4ccccc34)C(=O)O[C@]12C | 8 (≈ 10.4 µM) | 0.25 (≈ 0.326 µM) | 32 (≈ 41.7 µM) | 0.03 (≈ 0.0391 µM) | – | 32 (≈ 41.7 µM) | 0.06 (≈ 0.0781 µM) | 0.5 (≈ 0.651 µM) | 100 (≈ 130 µM) | 0.2 (≈ 0.26 µM)
CC[C@H]1OC(=O)/C(C)=C/[C@H](C)[C@@H](O[C@@H]2O[C@H](C)C[C@H](N(C)C)[C@H]2O)[C@@](C)(OC)C[C@@H](C)C(=O)[C@H](C)[C@H]2N(NCc3ccc(C(F)(F)F)cc3)C(=O)O[C@]12C | 16 (≈ 20.8 µM) | 2 (≈ 2.6 µM) | 16 (≈ 20.8 µM) | 0.06 (≈ 0.0779 µM) | 0.78 (≈ 1.01 µM) | 16 (≈ 20.8 µM) | 0.06 (≈ 0.0779 µM) | 2 (≈ 2.6 µM) | 100 (≈ 130 µM) | 0.78 (≈ 1.01 µM)
